Measurements as given in the supplement of paper PMC10307832.

How the values were obtained:
Assay in all cases: relative viability (nuclei count vs DMSO), 5 days (fraction); higher = more cells survive
[1] = compound: CC1=CC(=NN1)NC2=CC(=NC(=N2)/C=C/C3=CC=CC=C3)N4CCN(CC4)C + Nc1ncn([C@H]2C[C@H](O)[C@@H](CO)O2)c(=O)n1 [Decitabine] (partner 2 µM)
How it was run: (§1)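 Relative viability is defined as nuclei in treated wells over nuclei in vehicle wells. Duplicate plates were run and medians reported. Lung cancer cell lines in 1536-well plates were dosed by pin tool one day after seeding, with one drug or with a fixed anchor-drug dose plus five library-drug doses (not always all listed) in √10 steps, and nuclei were counted after 5 days.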

Obatoclax + Luminespib = compound: COC1=CC(c2cc3ccccc3[nH]2)=N/C1=C\c1[nH]c(C)cc1C [Obatoclax] + CCNC(=O)c1noc(-c2cc(C(C)C)c(O)cc2O)c1-c1ccc(CN2CCOCC2)cc1 [Luminespib] (partner 0.01 µM)
How it was run: as §1

[2] = compound: CC1=CC(=NN1)NC2=CC(=NC(=N2)/C=C/C3=CC=CC=C3)N4CCN(CC4)C + COc1cc2c(Oc3ccc(NC(=O)C4(C(=O)Nc5ccc(F)cc5)CC4)cc3F)ccnc2cc1OCCCN1CCOCC1 [Foretinib] (partner 0.25 µM)
How it was run: as §1

Obatoclax + AZD7762 = compound: COC1=CC(c2cc3ccccc3[nH]2)=N/C1=C\c1[nH]c(C)cc1C [Obatoclax] + NC(=O)Nc1cc(-c2cccc(F)c2)sc1C(=O)N[C@H]1CCCNC1 [AZD7762] (partner 0.2 µM)
How it was run: as §1

Cell Line: NCI-H650
- relative viability ([1]; first compound 0.08 µM): 0.314
- relative viability ([1]; first compound 0.253 µM): 0.318
- relative viability ([1]; first compound 0.8 µM): 0.287
- relative viability ([1]; first compound 2.53 µM): 0.246
- relative viability ([1]; first compound 8 µM): 0.157
- relative viability (Obatoclax + Luminespib; first compound 0.01 µM): 0.712
- relative viability (Obatoclax + Luminespib; first compound 0.03162 µM): 0.802
- relative viability (Obatoclax + Luminespib; first compound 0.3162 µM): 0.44
- relative viability (Obatoclax + Luminespib; first compound 1 µM): 0.305
- relative viability ([2]; first compound 0.253 µM): 1.14
- relative viability ([2]; first compound 0.8 µM): 1.01
- relative viability ([2]; first compound 2.53 µM): 0.923
- relative viability ([2]; first compound 8 µM): 0.255
- relative viability (Obatoclax + AZD7762; first compound 0.01 µM): 0.998
- relative viability (Obatoclax + AZD7762; first compound 0.03162 µM): 0.925
- relative viability (Obatoclax + AZD7762; first compound 0.3162 µM): 0.513
- relative viability (Obatoclax + AZD7762; first compound 1 µM): 0.324
